Peptide text beside a SMILES is read from it. * marks the point of attachment. DOTA = O=C(O)CN1CCN(CC(=O)O)CCN(CC(=O)*)CCN(CC(=O)O)CC1; Ahx = NCCCCCC(=O)O
Columns and labels:
E. coli = test: PET in E. coli myositis model (live vs heat killed, vs LPS); format: in vivo, mouse
Method: ^64Cu-GRIP B was also tested to determine whether it can detect granzyme B secreted from activated immune cells attempting to combat bacterial infections. A cohort of mice bearing bilateral deltoid implants of live E. coli or heat killed E. coli was established to test the kinetics of tracer uptake (FIG. 10).
Next, the granzyme B responses to live E. coli versus treatment with a bolus of the endotoxin LPS were compared. Three to four hours after implantation, mice received ^64Cu-GRIP B and were imaged serially (FIG. 12).

P. aeruginosa = test: PET in P. aeruginosa myositis model; format: in vivo, mouse
From the text: (§1) Performing additional myositis studies with other bacterial strains yielded unexpected and variable granzyme “responses” on PET. […] In both mouse cohorts, radiotracer uptake in the treated muscles was higher than in the normal muscle.

RAJI tumors = test: PET/CT in mice bearing RAJI xenografts given anti-CD19 CAR T cells; format: in vivo, mouse
Method: Mice bearing subcutaneous RAJI xenografts and administered anti-CD19 CAR T cells were imaged using ^64Cu-GRIP B PET/CT. Peripheral blood mononuclear cells were obtained from normal blood donor leukoreduction filters (Vitalant Blood Services). CD4+ and CD8+ T-cells were isolated via magnetic bead selection, activated with anti-CD3/CD28 beads, lentivirally transduced with a validated anti-CD19 CAR construct, and expanded in vitro with IL-2. In parallel, mice were injected with 1e6 Raji cells subcutaneously in the right flank. At tumor size of ˜400 mm3 5e6 CAR-expressing T-cells were implanted IV into each mouse. Mice received anti-CD19 CAR T cells or empty CAR Ts. After 6 days, the mice received ^64Cu-GRIP B (˜300 uCi/mouse) and were imaged from 0-4 hours post injection. The data depicted in FIG. 7 show images and region of interest analysis gathered at 4 hours post injection.
Additionally, mice bearing orthotopic RAJI xenografts and treated with activated CAR T cell based therapy were imaged using ^64Cu-GRIP B PET/CT. Raji cells (1e5) were administered orthotopically via tail vein injection to encourage seeding in abdominal tissues. This model was evaluated as subcutaneous Raji tumors are known to be intrinsically immunosuppressive.
Peripheral blood mononuclear cells were obtained from normal blood donor leukoreduction filters (Vitalant Blood Services). […]

virus = test: PET and biodistribution in viral pneumonia model; conditions: biodistribution; including spleen, liver and blood pool
From the text: In collaboration with the Looney lab at UCSF, mice received an intranasal instillation of virus or sham, and were imaged with ^64Cu-GRIP B at 10 days post infection (the time point at which peak recruitment of T cells to the lungs occurs).

MC38 = test: Biodistribution and PET/CT in mice bearing MC38 tumors treated with vehicle or CPI; format: in vivo, mouse; conditions: MC38 cohort, biodistribution
Method: (§2) Next, the biodistribution of ^64Cu-GRIP B and ^64Cu-D-GRIP B was compared in mice bearing MC38 (mouse colorectal cancer) or EMT6 (mouse mammary breast carcinoma) xenografts. The mice were treated with vehicle or anti-PD1 and anti-CTLA4 CPIs following the schema used for the CT26 cohort.

S. aureus = test: PET in S. aureus myositis model; format: in vivo, mouse
From the text: Granzyme B responses to other bacterial strains has also been tested. Live or heat killed S. aureus were implanted into the deltoids of mice to understand immune responses on PET. […] One possibility for the difference in response is that granzyme B is not uniformly employed to attack all pathogens, and the immune cells may customize their granzyme response based on the features of the pathogen.

CT26 tumors = test: Biodistribution in germline GZMB knockout mice bearing CT26 tumors, vehicle or CPI; format: in vivo, mouse
Method: Lastly, to confirm that GZMB is responsible for post treatment changes in ^64Cu-GRIP B biodistribution, germline homozygous GZMB knockout mice were inoculated with CT26 tumors and the relative biodistribution of ^64Cu-L-GRIP B in mice was assessed after treatment with vehicle or CPIs.
To confirm this, post treatment changes in tumoral uptake of ^64Cu-GRIP B were assessed for correlation with antitumor effects.

secreted GZMB = molecular target: T1, secreted GZMB (Mus musculus, UniProt P04187); test: PET/CT and biodistribution after intratracheal LPS instillation; format: in vivo
T1 construct: from tissue; host or cells: live wild type mice; lungs and other organs after intratracheal LPS
T1 sequence (P04187 21-247): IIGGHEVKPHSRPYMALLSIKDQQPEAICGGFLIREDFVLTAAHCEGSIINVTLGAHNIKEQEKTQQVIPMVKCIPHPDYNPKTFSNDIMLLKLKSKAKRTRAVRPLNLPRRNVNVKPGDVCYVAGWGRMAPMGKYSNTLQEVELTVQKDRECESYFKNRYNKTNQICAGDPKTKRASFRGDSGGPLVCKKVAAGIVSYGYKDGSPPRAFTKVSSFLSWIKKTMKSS
Method: Though not well defined, non-cytotoxic functions for secreted GZMB have been proposed in several physiological processes, for example inflammation. To test if ^64Cu-GRIP B can localize potentially pathogenic reservoirs of secreted GZMB due to inflammation, ^64Cu-GRIP B PET/CT was performed on wild type mice that had received intratracheal instillations of lipopolysaccharide (LPS). PET/CT was performed four days after the instillation, a time point at which T cell recruitment to the lungs has occurred. […] Since 3 mg/kg LPS can trigger systemwide T cell activation, radiotracer uptake was examined in a larger panel of mouse organs. […] Remarkably, the systemwide impact on T cell activation due to the intratracheal instillation of LPS was also visually obvious by comparing maximum intensity projections between treatment arms (FIG. 6, panel E).

K. pneumoniae = test: PET in K. pneumoniae myositis model; format: in vivo, mouse
From the text: as §1

EMT6 = test: Biodistribution in mice bearing EMT6 tumors treated with vehicle or CPI; format: in vivo, mouse; conditions: EMT6 cohort
Method: as §2

M. marinum = test: PET in M. marinum myositis model; format: in vivo, mouse
From the text: (§3) Neither M. marinum nor the L. monoctyogenes induced ^64Cu-GRIP B uptake in live bacterial abscesses compared to heat killed controls.

L. monoctyogenes = test: PET in L. monoctyogenes myositis model; format: in vivo, mouse
From the text: as §3

## CC[C@H](C)[C@H](NC(=O)[C@H](CCCCN)NC(=O)CNC(=O)[C@H](CC(C)C)NC(=O)[C@H](Cc1ccccc1)NC(=O)[C@H](CCCCN)NC(=O)[C@H](CO)NC(=O)[C@H](Cc1ccccc1)NC(=O)[C@H](Cc1c[nH]c2ccccc12)NC(=O)[C@H](CCC(N)=O)NC(=O)[C@@H](NC(=O)[C@H](Cc1ccccc1)NC(=O)CCCCCNC(=O)CN1CCN(CC(=O)O)CCN(CC(=O)O)CCN(CC(=O)O)CC1)C(C)C)C(=O)N[C@@H](CCC(=O)O)C(=O)N1CCC[C@H]1C(=O)N[C@@H](CC(=O)O)C(=O)N[C@H](C(=O)N[C@@H](CO)C(=O)N[C@@H](CCC(N)=O)C(=O)N[C@H](C(=O)N[C@@H](CCC(N)=O)C(=O)N[C@@H](CC(=O)O)C(=O)N1CCC[C@H]1C(=O)N[C@@H](CC(N)=O)C(=O)N[C@@H](CC(=O)O)C(=O)N[C@@H](CCC(N)=O)C(=O)N[C@@H](Cc1ccc(O)cc1)C(=O)N[C@@H](CCC(=O)O)C(=O)N1CCC[C@H]1C(=O)N[C@@H](Cc1ccccc1)C(=O)O)C(C)C)C(C)C [^64Cu-GRIP B, metal not drawn] ({DOTA-Ahx}-FVQWFSKFLGKIEPDVSQVQDPNDQYEPF-OH)
E. coli; E. coli, bilateral deltoid implants
  uptake in live abscess compared to site of heat killed bacterial implantation: significantly higher
E. coli; live E. coli deltoid implant
  time course of tracer uptake in the myositis lesion: increased out to 5 hours and persisted to at least 24 hours post injection
E. coli; tracer three to four hours after implantation, serial imaging
  radiotracer uptake, live E. coli abscess versus bolus of LPS: differences in radiotracer uptake were detected from 6-24 hours post injection
P. aeruginosa
  uptake in treated muscles versus normal muscle: higher
P. aeruginosa; deltoid muscles
  uptake in live bacterial infection versus contralateral heat killed bacteria: higher
RAJI tumors; orthotopic RAJI tumors in liver, CD19 CAR Ts, ROI and post mortem dosimetry
  uptake in tumor bearing livers: induce ^64Cu-GRIP B uptake in tumor bearing livers
RAJI tumors; subcutaneous and orthotopic RAJI, anti-CD19 CAR T vs empty CAR Ts, 4 hours post injection
  detection of granzyme B production from activated CAR T cells: can detect granzyme B production from activated CAR T cells
virus
  relative radiotracer uptake per organ, viral infection: higher radiotracer uptake in numerous tissues
MC38
  tumoral uptake after CPI compared to controls: significant increase
S. aureus; S. aureus
  granzyme B response in live bacterial abscess compared to that of E. coli: more modest granzyme B response
  uptake in live bacterial abscess versus heat killed abscess: significantly higher
S. aureus; S. aureus deltoid implant
  time course of radiotracer uptake: rising rapidly from 0-6 hours post injection and plateauing from 6-24 hours
CT26 tumors; GZMB knockout mouse background
  correlation of tumoral uptake or tumor to blood ratio with percent changes in tumor volume: neither tumoral uptake nor tumor to blood ratio of ^64Cu-GRIP B correlated
CT26 tumors; germline homozygous GZMB knockout mice, CT26 tumors
  post treatment changes in radiotracer uptake in tumors and spleen, CPI compared to vehicle: No significant post treatment changes
Secreted GZMB; co-localized with GZMB and CD3 staining
  autoradiography of the lungs, LPS treated: visually higher radiotracer binding
Secreted GZMB; either dose, including spleen and thymus
  ex vivo biodistribution, LPS treated versus vehicle mice: significantly higher in numerous tissues
Secreted GZMB; low (0.1 mg/kg) and high (3 mg/kg) doses of LPS, four days after instillation, ROI analysis
  radiotracer accumulation in the lungs, LPS compared to vehicle: significantly higher
K. pneumoniae
  uptake in treated muscles versus normal muscle: higher
K. pneumoniae; deltoid muscles
  uptake in live bacterial infection versus contralateral heat killed bacteria: higher
EMT6
  tumoral uptake after CPI compared to controls: significant increase
M. marinum
  radiotracer uptake compared to normal muscle: significant increase
  uptake in live bacterial abscesses compared to heat killed controls: did not impact
L. monoctyogenes
  radiotracer uptake compared to normal muscle: significant increase
  uptake in live bacterial abscesses compared to heat killed controls: did not impact

From patent US20240238459A1, “Granzyme-Activatable Membrane-Interacting Peptides and Methods of Use” (priority 2021, published 2024)
